Laboratory results taken from patent US12612410B2 (CHILDREN'S HOSPITAL MEDICAL CENTER, priority 2020, dated 2026).

Target: T1, FLT3 ITD (Homo sapiens, UniProt P36888)
T1 construct: fused on or other part: DNA tag for qPCR detection (T7 phage fusion or DNA-tagged protein from HEK-293 cells)
T1 sequence (P36888 1-993): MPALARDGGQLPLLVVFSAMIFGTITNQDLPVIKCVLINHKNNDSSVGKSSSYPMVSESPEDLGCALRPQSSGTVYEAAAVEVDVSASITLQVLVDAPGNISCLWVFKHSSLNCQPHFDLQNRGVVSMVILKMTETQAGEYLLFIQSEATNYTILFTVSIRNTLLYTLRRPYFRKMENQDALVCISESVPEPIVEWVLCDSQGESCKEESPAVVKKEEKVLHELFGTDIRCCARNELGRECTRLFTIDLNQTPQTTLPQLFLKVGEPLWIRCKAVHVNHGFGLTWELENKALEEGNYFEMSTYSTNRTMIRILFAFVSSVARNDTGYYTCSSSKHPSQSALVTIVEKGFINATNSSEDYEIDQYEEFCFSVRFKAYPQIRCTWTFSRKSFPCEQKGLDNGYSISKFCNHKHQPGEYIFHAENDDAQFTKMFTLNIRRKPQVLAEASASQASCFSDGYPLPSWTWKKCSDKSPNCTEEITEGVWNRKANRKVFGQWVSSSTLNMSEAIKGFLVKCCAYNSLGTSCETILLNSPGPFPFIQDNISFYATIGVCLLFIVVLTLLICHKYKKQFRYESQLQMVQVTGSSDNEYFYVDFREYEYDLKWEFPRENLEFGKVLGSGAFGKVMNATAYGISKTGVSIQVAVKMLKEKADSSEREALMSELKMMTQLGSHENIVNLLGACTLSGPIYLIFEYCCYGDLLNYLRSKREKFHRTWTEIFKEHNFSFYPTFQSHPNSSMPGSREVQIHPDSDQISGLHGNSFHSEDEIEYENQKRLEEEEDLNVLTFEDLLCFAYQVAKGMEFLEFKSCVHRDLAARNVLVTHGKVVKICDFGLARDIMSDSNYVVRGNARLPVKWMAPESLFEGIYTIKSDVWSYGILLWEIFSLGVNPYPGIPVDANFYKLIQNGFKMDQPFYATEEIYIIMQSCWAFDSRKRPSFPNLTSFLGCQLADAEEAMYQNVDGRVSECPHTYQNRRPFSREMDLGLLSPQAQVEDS
Assay: DiscoverX KINOMEscan competition binding, FLT3 ITD
From the text: Kinase binding data were obtained for various exemplary compounds prepared according to Examples 1-24 using the DiscoverX KINOMVIEscan® active site-directed competition binding site-directed assay protocol described below. […] As a result, the data report thermodynamic interaction affinities (Kd values), rather than IC50 values that are dependent on ATP concentrations. The assay uses a DNA-tagged version of the protein kinase, and an immobilized ligand bound to a solid support. Compounds that directly or indirectly prevent kinase binding to the immobilized ligand reduce the amount of kinase captured on the solid support, which is detected using an ultra-sensitive qPCR method. Affinity constants reported from the assay have been reported to be independent of the immobilized ligand used that is coupled to the solid support (See supplemental information in Fabian, M. A. et. al., (2005) Nat. Biotechnol. 23, 329-336; Wodicka, L. M. et. al., (2010) Chem. Biol. 17, 1241-1249.)
Kinase-tagged T7 phage strains were prepared in an E. coli host derived from the BL21 strain. E. coli were grown to log-phase and infected with T7 phage and incubated with shaking at 32° C. until lysis. The lysates were centrifuged and filtered to remove cell debris. The remaining kinases were produced in HEK-293 cells and subsequently tagged with DNA for qPCR detection. Streptavidin-coated magnetic beads were treated with biotinylated small molecule ligands for 30 minutes at room temperature to generate affinity resins for kinase assays. The liganded beads were blocked with excess biotin and washed with blocking buffer (SeaBlock (Pierce), 1% BSA, 0.05% Tween 20, 1 mM DTT) to remove unbound ligand and to reduce non-specific binding. Binding reactions were assembled by combining kinases, liganded affinity beads, and test compounds in 1× binding buffer (20% SeaBlock, 0.17×PBS, 0.05% Tween 20, 6 mM DTT). Test compounds were prepared as 111× stocks in 100% DMSO. Kds were determined using an 11-point 3-fold compound dilution series with three DMSO control points. All compounds for Kd measurements are distributed by acoustic transfer (non-contact dispensing) in 100% DMSO. The compounds were then diluted directly into the assays such that the final concentration of DMSO was 0.9%. All reactions were performed in polypropylene 384-well plates. Each was a final volume of 0.02 mL. The assay plates were incubated at room temperature with shaking for 1 hour and the affinity beads were washed with wash buffer (1×PBS, 0.05% Tween 20). The beads were then re-suspended in elution buffer (1×PBS, 0.05% Tween 20, 0.5 μM nonbiotinylated affinity ligand) and incubated at room temperature with shaking for 30 minutes. The kinase concentration in the eluates was measured by qPCR.
Binding constants (Kds) were calculated with a standard dose-response curve using the Hill equation. The Hill Slope was set to −1. Curves were fitted using a non-linear least square fit with the Levenberg-Marquardt algorithm.

Kd [nM]	Compound
1.4	FC(F)(F)C1(c2cn3c(-c4cccc(N[C@@H]5CCNC5)n4)cnc3cn2)CC1 [Compound 10, (R)-N-(pyrrolidin-3-yl)-6-(6-(1-(trifluoromethyl)cyclopropyl)imidazo[1,2-a]pyrazin-3-yl)pyridin-2-amine]
2.3	FC(F)(F)COc1cn2c(-c3cccc(N[C@@H]4CCNC4)n3)cnc2cn1 [Compound 38, (R)-N-(pyrrolidin-3-yl)-6-(6-(2,2,2-trifluoroethoxy)imidazo[1,2-a]pyrazin-3-yl)pyridin-2-amine]
0.087	CC1(c2cn3c(-c4cccc(N[C@H]5CNC[C@@H]5F)n4)cnc3cn2)CC1 [Compound 1, N-((3S,4S)-4-fluoropyrrolidin-3-yl)-6-(6-(1-methylcyclopropyl)imidazo[1,2-a]pyrazin-3-yl)pyridin-2-amine]
1.5	CC(C)(O)c1cn2c(-c3cccc(N[C@H]4CNCC[C@@H]4F)n3)cnc2cn1 [Compound 31, 2-(3-(6-(((3S,4S)-4-fluoropiperidin-3-yl)amino)pyridin-2-yl)imidazo[1,2-a]pyrazin-6-yl)propan-2-ol]
0.11	CC1(c2cn3c(-c4cccc(N[C@H]5CNCC56CC6)n4)cnc3cn2)CC1 [Compound 5, (R)-N-(6-(6-(1-methylcyclopropyl)imidazo[1,2-a]pyrazin-3-yl)pyridin-2-yl)-5-azaspiro[2.4]heptan-7-amine]
0.14	CC1(c2cn3c(-c4cccc(N[C@@H]5CCNC5)n4)cnc3cn2)CC1 [Compound 3, (R)-6-(6-(1-methylcyclopropyl)imidazo[1,2-a]pyrazin-3-yl)-N-(pyrrolidin-3-yl)pyridin-2-amine]
2.9	CC(C)(O)c1cn2c(-c3cccc(N[C@@H]4CCCNC4)n3)cnc2cn1 [Compound 30, (R)-2-(3-(6-(piperidin-3-ylamino)pyridin-2-yl)imidazo[1,2-a]pyrazin-6-yl)propan-2-ol]

Continued, compound first:

Compound	Kd [nM]
FC(F)c1cn2c(-c3cccc(N[C@H]4CNC[C@@H]4F)n3)cnc2cn1 [Compound 16, 6-(6-(difluoromethyl)imidazo[1,2-a]pyrazin-3-yl)-N-((3S,4S)-4-fluoropyrrolidin-3-yl)pyridin-2-amine]	0.14
F[C@H]1CNC[C@@H]1Nc1cccc(-c2cnc3cnc(C4CC4)cn23)n1 [Compound 50, 6-(6-cyclopropylimidazo[1,2-a]pyrazin-3-yl)-N-((3S,4S)-4-fluoropyrrolidin-3-yl)pyridin-2-amine]	0.091
FC(F)c1cn2c(-c3cccc(N[C@H]4CNCC[C@@H]4F)n3)cnc2cn1 [Compound 25, 6-(6-(difluoromethyl)imidazo[1,2-a]pyrazin-3-yl)-N-((3S,4S)-4-fluoropiperidin-3-yl)pyridin-2-amine]	0.34
Cn1cc(-c2cn3c(-c4cccc(N[C@H]5CNC[C@@H]5F)n4)cnc3cn2)cn1 [Compound 52, N-((3S,4S)-4-fluoropyrrolidin-3-yl)-6-(6-(1-methyl-1H-pyrazol-4-yl)imidazo[1,2-a]pyrazin-3-yl)pyridin-2-amine]	0.13
